Consider 13 compounds from ChEMBL document CHEMBL5154706, “Synthesis of lathyrane diterpenoid nitrogen-containing heterocyclic derivatives and evaluation of their anti-inflammatory activities” (Bioorg Med Chem, 2022).

Activity calls are given as the source filed them. The rule behind the calls is not given here.

Assay [1] has as its system RAW264.7. The experiment in a line: Antiinflammatory activity against LPS-induced mouse RAW264.7 cells assessed as increase in HO-1 expression preincubated for 3 hrs followed by LPS stimulation and measured after 24 hrs by Western blot analysis. The conditions noted are these: dose 0.25-2 µM, time 27.0 hrs, DDE = dose-dependent effect. Type of assay: functional, cell-based. For orientation: A western blot detects proteins with antibodies after separation by electrophoresis.

Assay [2] has as its system RAW264.7. The experiment in a line: Antiinflammatory activity against LPS-induced mouse RAW264.7 cells assessed as increase in Nrf2 expression preincubated for 3 hrs followed by LPS stimulation and measured after 24 hrs by Western blot analysis. Type of assay: functional, cell-based. To be noted: dose 0.25-2 µM, time 27.0 hrs, DDE = dose-dependent effect.
For assay [3], the system named is RAW264.7. The experiment in a line: Antiinflammatory activity against LPS-induced mouse RAW264.7 cells assessed as increase in intrinsic nitric oxide level at 0.5 ug/ml measured after 3 hrs by Griess reagent based assay. The assay is classed as functional, cell-based. The conditions noted are these: dose 0.5 µg/ml.
Assay [4] deals with RAW264.7. The experiment in a line: Antiinflammatory activity against mouse RAW264.7 cells assessed as inhibition of LPS-induced NO production preincubated for 3 hrs followed by LPS stimulation and measured after 24 hrs by Griess reagent based assay. Type of assay: functional, cell-based. A general note: The Griess reaction detects nitrite, a stable product of nitric oxide.
In assay [5] the test system is RAW264.7. The experiment in a line: Antiinflammatory activity against LPS-induced mouse RAW264.7 cells assessed as decrease in Keap1 expression preincubated for 3 hrs followed by LPS stimulation and measured after 24 hrs by Western blot analysis. The assay is classed as functional, cell-based. To be noted: dose 0.25-2 µM, time 27.0 hrs, DDE = dose-dependent effect.

The target of assay [6] is T1, Nuclear factor erythroid 2-related factor 2 (Mus musculus) (UniProt Q60795).
T1 sequence (whole entry): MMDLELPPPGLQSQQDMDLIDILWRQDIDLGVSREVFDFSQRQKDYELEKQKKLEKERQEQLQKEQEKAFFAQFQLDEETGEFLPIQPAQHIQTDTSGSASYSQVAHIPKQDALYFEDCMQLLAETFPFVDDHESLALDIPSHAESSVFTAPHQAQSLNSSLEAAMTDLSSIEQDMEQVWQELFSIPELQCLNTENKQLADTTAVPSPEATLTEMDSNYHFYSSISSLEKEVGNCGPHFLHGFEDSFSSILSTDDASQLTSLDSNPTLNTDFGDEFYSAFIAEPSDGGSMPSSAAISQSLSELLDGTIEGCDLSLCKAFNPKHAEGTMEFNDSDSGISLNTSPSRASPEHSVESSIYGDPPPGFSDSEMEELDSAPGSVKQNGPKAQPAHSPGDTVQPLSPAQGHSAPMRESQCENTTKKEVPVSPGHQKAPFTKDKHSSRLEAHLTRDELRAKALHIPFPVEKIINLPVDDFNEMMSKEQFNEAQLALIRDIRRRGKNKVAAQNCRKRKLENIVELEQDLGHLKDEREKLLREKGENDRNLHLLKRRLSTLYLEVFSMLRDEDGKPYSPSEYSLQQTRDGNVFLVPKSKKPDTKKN
The experiment in a line: Induction of LPS-induced Nrf2 nuclear translocation in mouse RAW264.7 cells at 2 uM preincubated for 3 hrs followed by LPS stimulation and measured after 12 hrs by immunofluorescence staining based confocal laser scanning microscopy. The conditions noted are these: time 15.0 hrs. Type of assay: cell-based.

Assay [7] concerns RAW264.7. The experiment in a line: Antiinflammatory activity against mouse RAW264.7 cells assessed as inhibition of LPS-induced ROS generation at 0.25 to 2 uM preincubated for 3 hrs followed by LPS stimulation and measured after 12 hrs by DCFH-DA probe based flow cytometry. Type of assay: functional, cell-based. The conditions noted are these: dose 0.25-2 µM, time 15.0 hrs.
The test system of assay [8] is RAW264.7. The experiment in a line: Antiinflammatory activity against mouse RAW264.7 cells assessed as inhibition of LPS-induced ROS generation at […] preincubated for 3 hrs followed by LPS stimulation and measured after 12 hrs by DCFH-DA probe based flow cytometry. The conditions noted are these: time 15.0 hrs. The assay is classed as functional, cell-based. A general note: Flow cytometry measures light scatter and fluorescence of single cells or particles in a stream.

The IC50 is the concentration that gives 50% inhibition. As to `C=C1CC[C@H]2[C@@H](/C=C(\C)C(=O)[C@@]3(O)C[C@H](C)[C@H](O)[C@@H]3[C@H]1OC(=O)CCC(=O)OCCOCCOc1no[n+]([O-])c1S(=O)(=O)c1ccccc1)C2(C)C`, the Activity result in assay [1], in assay [2] and in assay [5] was “Dde” in each case. Also, the result in assay [3] and in assay [6] was Active. In addition, the 50% inhibitory concentration (IC50) in assay [4] is 0.38 µM. The inhibition result in assay [7] was “Active”.

Turning to `C=C1CC[C@H]2[C@@H](/C=C(\C)C(=O)[C@@]3(O)C[C@H](C)[C@H](O)[C@@H]3[C@H]1OC(=O)c1cn(CC)nc1-c1ccc(F)cc1)C2(C)C`, the IC50 in assay [4] was greater than 20 µM.

In the case of `C=C1CC[C@H]2[C@@H](/C=C(\C)C(=O)[C@@]3(O)C[C@H](C)[C@H](O)[C@@H]3[C@H]1OC(=O)c1cn(-c3ccccc3)nc1-c1ccc(N(C)C)cc1)C2(C)C`, the concentration for half-maximal inhibition (IC50) in assay [4] is greater than 20 µM.

Regarding `C=C1CC[C@H]2[C@@H](/C=C(\C)C(=O)[C@@]3(O)C[C@H](C)[C@H](O)[C@@H]3[C@H]1OC(=O)c1cn(CC)nc1-c1ccc(C)cc1)C2(C)C`, the IC50 in assay [4] came out at 7.73 µM.

Consider `C/C1=C\[C@@H]2[C@H](CC[C@]3(CO3)[C@H](OC(=O)CCC(=O)OCCOCCOc3no[n+]([O-])c3S(=O)(=O)c3ccccc3)[C@H]3[C@@H](O)[C@@H](C)C[C@]3(O)C1=O)C2(C)C`, for which the IC50 in assay [4] was determined as 3.38 µM.

`CCn1cc(C(=O)O[C@@H]2[C@H]3[C@@H](O)[C@@H](C)C[C@]3(O)C(=O)/C(C)=C/[C@@H]3[C@H](CC[C@]24CO4)C3(C)C)c(-c2ccc(F)cc2)n1`: in assay [4], the IC50 came to 13.3 µM.

With `CCn1cc(C(=O)O[C@@H]2[C@H]3[C@@H](O)[C@@H](C)C[C@]3(O)C(=O)/C(C)=C/[C@@H]3[C@H](CC[C@]24CO4)C3(C)C)c(-c2ccc(C(F)(F)F)cc2)n1`, in assay [4], the IC50 worked out at 10.6 µM.

Regarding `C/C1=C\[C@@H]2[C@H](CC[C@]3(CO3)[C@H](OC(=O)c3cn(-c4ccccc4)nc3-c3ccc(N(C)C)cc3)[C@H]3[C@@H](O)[C@@H](C)C[C@]3(O)C1=O)C2(C)C`, the IC50 in assay [4] was greater than 20 µM.

Regarding `C=C1CC[C@H]2[C@@H](/C=C(\C)C(=O)[C@@]3(O)C[C@H](C)[C@H](O)[C@@H]3[C@H]1OC(=O)c1cn(-c3ccccc3)nc1-c1ccc(OC)cc1)C2(C)C`, the IC50 in assay [4] is greater than 20 µM.

As for `CC(=O)N[C@@H](CS)C(=O)O`, the inhibition entry in assay [8] was “Active”.

For the compound `C/C1=C\[C@@H]2[C@H](CC[C@]3(CO3)[C@H](OC(=O)c3cn(-c4ccccc4)nc3-c3ccc(F)cc3)[C@H]3[C@@H](O)[C@@H](C)C[C@]3(O)C1=O)C2(C)C`, in assay [4], the IC50 is 10.6 µM.

Regarding `C/C1=C\[C@@H]2[C@H](CC[C@]3(CO3)[C@H](OC(=O)CCC(=O)NCCOc3no[n+]([O-])c3S(=O)(=O)c3ccccc3)[C@H]3[C@@H](O)[C@@H](C)C[C@]3(O)C1=O)C2(C)C`, the IC50 in assay [4] turned out to be 1.43 µM.

For the compound `C=C1CC[C@H]2[C@@H](/C=C(\C)C(=O)[C@@]3(O)C[C@H](C)[C@H](O)[C@@H]3[C@H]1OC(=O)c1cn(CC)nc1-c1ccc(Cl)cc1)C2(C)C`, the IC50 in assay [4] is 5.84 µM.
